This passage reports mutagenic call results from PubChem BioAssay AID1259407 (Chemical Carcinogenesis Research Information System (CCRIS), 2018).

Calls of active or inactive are those of the source. How the calls were made is not given here.

The test system of the data set is CCRIS mutagenicity, Ames/micronucleus/aberration tests. Briefly: CCRIS mutagenicity studies.
Setting [1] is: Test System: MOUSE LYMPHOMA, Strain/Indicator: L5178Y (TK+/TK-), Metabolic Activation: NONE, Method: SUSPENSION/PLATE.
Setting [2] is: Test System: MOUSE LYMPHOMA, Strain/Indicator: L5178Y (TK+/TK-), Metabolic Activation: RAT, LIVER, S-9, AROCLOR 1254, Method: SUSPENSION/PLATE.

Regarding `CCN(CC)CCNc1ccc(CO)c2sc3ccccc3c(=O)c12`, the mutagenic call is, setting by setting: (Test System: AMES SALMONELLA TYPHIMURIUM, Strain/Indicator: TA98, Metabolic Activation: HAMSTER, LIVER, S-9, AROCLOR 1254 (30%), Method: PREINCUBATION) “active; positive”; (Test System: AMES SALMONELLA TYPHIMURIUM, Strain/Indicator: TA98, Metabolic Activation: NONE, Method: PREINCUBATION) “active; positive”; (Test System: AMES SALMONELLA TYPHIMURIUM, Strain/Indicator: TA98, Metabolic Activation: NONE, Method: STANDARD PLATE) “active; positive”; (Test System: AMES SALMONELLA TYPHIMURIUM, Strain/Indicator: TA98, Metabolic Activation: RAT, LIVER, S-9, AROCLOR 1254 (30%), Method: PREINCUBATION) “active; positive”; (Test System: AMES SALMONELLA TYPHIMURIUM, Strain/Indicator: TA98, Metabolic Activation: RAT, LIVER, S-9, AROCLOR 1254 OR PHENOBARBITOL, Method: STANDARD PLATE) “active; positive”; (Test System: AMES SALMONELLA TYPHIMURIUM, Strain/Indicator: TA98, Metabolic Activation: RAT, LIVER, S-9, KC500 OR PHENOBARBITAL, Method: LIQUID SUSPENSION) “active; positive”. Also, the mutagenic call runs as follows: (Test System: AMES SALMONELLA TYPHIMURIUM, Strain/Indicator: TA100, Metabolic Activation: HAMSTER, LIVER, S-9, AROCLOR 1254 (30%), Method: PREINCUBATION) “active; positive”; (Test System: AMES SALMONELLA TYPHIMURIUM, Strain/Indicator: TA100, Metabolic Activation: NONE, Method: PREINCUBATION) “active; positive”; (Test System: AMES SALMONELLA TYPHIMURIUM, Strain/Indicator: TA100, Metabolic Activation: NONE, Method: STANDARD PLATE) “active; positive”; (Test System: AMES SALMONELLA TYPHIMURIUM, Strain/Indicator: TA100, Metabolic Activation: RAT, LIVER, S-9, AROCLOR 1254 (30%), Method: PREINCUBATION) “active; positive”; (Test System: AMES SALMONELLA TYPHIMURIUM, Strain/Indicator: TA100, Metabolic Activation: RAT, LIVER, S-9, AROCLOR 1254 OR PHENOBARBITOL, Method: STANDARD PLATE) “active; positive”; (Test System: AMES SALMONELLA TYPHIMURIUM, Strain/Indicator: TA100, Metabolic Activation: RAT, LIVER, S-9, KC500 OR PHENOBARBITAL, Method: LIQUID SUSPENSION) “active; positive”. The mutagenic call (Test System: AMES SALMONELLA TYPHIMURIUM, Strain/Indicator: TA1535, Metabolic Activation: NONE, Method: STANDARD PLATE) is “inactive; negative”; the mutagenic call (Test System: AMES SALMONELLA TYPHIMURIUM, Strain/Indicator: TA1535, Metabolic Activation: RAT, LIVER, S-9, AROCLOR 1254 OR PHENOBARBITOL, Method: STANDARD PLATE) was “inactive; negative”; the mutagenic call (Test System: AMES SALMONELLA TYPHIMURIUM, Strain/Indicator: TA1537, Metabolic Activation: NONE, Method: STANDARD PLATE) was “active; positive”; the mutagenic call (Test System: AMES SALMONELLA TYPHIMURIUM, Strain/Indicator: TA1537, Metabolic Activation: RAT, LIVER, S-9, AROCLOR 1254 OR PHENOBARBITOL, Method: STANDARD PLATE) was “active; positive”; the mutagenic call (Test System: AMES SALMONELLA TYPHIMURIUM, Strain/Indicator: TA1537, Metabolic Activation: RAT, LIVER, S-9, KC500 OR PHENOBARBITAL, Method: LIQUID SUSPENSION) was “active; positive”; the mutagenic call (Test System: AMES SALMONELLA TYPHIMURIUM, Strain/Indicator: TA1538, Metabolic Activation: NONE, Method: STANDARD PLATE) is “active; positive”. In addition, the mutagenic call runs as follows: (Test System: AMES SALMONELLA TYPHIMURIUM, Strain/Indicator: TA1538, Metabolic Activation: RAT, LIVER, S-9, AROCLOR 1254 OR PHENOBARBITOL, Method: STANDARD PLATE) “active; positive”; (Test System: AMES SALMONELLA TYPHIMURIUM, Strain/Indicator: TA1538, Metabolic Activation: RAT, LIVER, S-9, KC500 OR PHENOBARBITAL, Method: LIQUID SUSPENSION) “active; positive”; (Test System: CHINESE HAMSTER OVARY, Strain/Indicator: CHO-K1-BH4 (HGPRT), Metabolic Activation: NONE, Method: SUSPENSION/PLATE) “active; positive”; under setting [1], “active; positive”; under setting [2], “active; positive”.

Regarding `OC[C@H]1O[C@@](CO)(O[C@H]2O[C@H](CO)[C@@H](O)[C@H](O)[C@H]2O)[C@@H](O)[C@@H]1O`, the mutagenic call is, setting by setting: (End Point: IN VITRO CHROMOSOMAL ABERRATIONS, Test System: CHO-WBL CELLS, Metabolic Activation: NONE) “active; positive (structural changes); osmolality of solution decisive factor”; under setting [1], “inactive; negative”; under setting [2], “inactive; negative”; (Test System: MOUSE LYMPHOMA, Strain/Indicator: L5178Y (TK+/TK-), Metabolic Activation: RAT, LIVER, S-9, Method: SUSPENSION/PLATE) “inactive; negative”.
